Data taken from patent publication US10246456B2, “IRAK4 inhibiting agents” (BIOGEN MA INC., priority 2014, dated 2019).

The molecules below were run against IRAK4 (Homo sapiens (Human), UniProt Q9NWZ3) (assay: IRAK-4 AlphaScreen biochemical kinase assay). Conditions: 1 nM IRAK4, 1 mM ATP, 3.5 h at RT.
Experimental: The biochemical assay is in a AlphaScreen format. The kinase reaction is based on the IRAK-4 phosphorylation of a biotin labeled peptide. The phosphopeptide is incubated with anti-phosphothreonine antibody as well as streptavidin- and protein A-coated beads. Binding of the protein-A coated beads to the antibody and the streptavidin beads to the peptide, leads to an energy transfer from one bead to the other, ultimately producing a luminescent/fluorescent signal.

IRAK4, sequence (Q9NWZ3 whole entry, species assumed): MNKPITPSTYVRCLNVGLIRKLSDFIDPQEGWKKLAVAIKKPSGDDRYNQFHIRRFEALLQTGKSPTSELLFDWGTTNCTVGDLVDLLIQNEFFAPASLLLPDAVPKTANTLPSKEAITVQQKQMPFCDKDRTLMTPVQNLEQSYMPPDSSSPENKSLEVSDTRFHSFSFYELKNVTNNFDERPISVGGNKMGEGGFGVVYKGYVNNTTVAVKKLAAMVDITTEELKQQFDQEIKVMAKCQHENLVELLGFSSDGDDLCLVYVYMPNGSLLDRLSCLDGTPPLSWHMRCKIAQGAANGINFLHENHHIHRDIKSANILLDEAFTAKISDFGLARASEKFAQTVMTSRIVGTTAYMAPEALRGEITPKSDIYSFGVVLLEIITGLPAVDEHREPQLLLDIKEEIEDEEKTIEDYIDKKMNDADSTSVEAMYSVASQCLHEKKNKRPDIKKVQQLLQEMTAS

Row | Compound | IC50 [nM]
1 | CCC(N)c1cccc(-c2ccc3cnn(-c4cccc(C(F)(F)F)n4)c3c2)n1 (stereo not shown) [Example 127, 1-(6-(1-(6-(trifluoromethyl)pyridin-2-yl)-1H-indazol-6-yl)pyridin-2-yl)propan-1-amine] | < 100
2 | COCCOc1cc(-c2cccc([C@@H](N)CCCO)n2)cc2c1cnn2-c1cncc(CO)n1 [Example 428, (S)-4-amino-4-(6-(1-(6-(hydroxymethyl)pyrazin-2-yl)-4-(2-methoxyethoxy)-1H-indazol-6-yl)pyridin-2-yl)butan-1-ol] | < 100
3 | CC(N)c1cccc(-c2ccc3cnn(-c4cccc(CO)n4)c3c2)c1 (stereo not shown) [Example 563, (6-(6-(3-(1-aminoethyl)phenyl)-1H-indazol-1-yl)pyridin-2-yl)methanol] | 100 to 1000
4 | Cc1cccc(-n2ncc3ccc(-c4cc(N)ccn4)cc32)n1 [Example 3, 2-(1-(6-methylpyridin-2-yl)-1H-indazol-6-yl)pyridin-4-amine] | 1000 to 10000
5 | CCC[C@H](N)c1cccc(-c2cc(-n3ccnn3)c3cnn(-c4cccc(CO)n4)c3c2)n1 [Example 578, (S)-(6-(6-(6-(1-aminobutyl)pyridin-2-yl)-4-(1H-1,2,3-triazol-1-yl)-1H-indazol-1-yl)pyridin-2-yl)methanol] | < 100
6 | Cc1cccc(-n2ncc3ccc(-c4cccc(C(N)CC(F)(F)F)n4)cc32)n1 (stereo not shown) [Example 551, 3,3,3-trifluoro-1-(6-(1-(6-methylpyridin-2-yl)-1H-indazol-6-yl)pyridin-2-yl)propan-1-amine] | 100 to 1000
7 | COC(=O)c1nc(-c2ccc3cnn(-c4cccc(C)n4)c3c2)ccc1N [Example 243, methyl 3-amino-6-(1-(6-methylpyridin-2-yl)-1H-indazol-6-yl)picolinate] | 1000 to 10000
8 | Cc1cccc(-n2ncc3c(CN)cc(-c4cccc(C(C)N)n4)cc32)n1 (stereo not shown) [Example 104, 1-(6-(4-(aminomethyl)-1-(6-methylpyridin-2-yl)-1H-indazol-6-yl)pyridin-2-yl)ethanamine] | 1000 to 10000
9 | Cc1cccc(-n2ncc3c(OCC4CC4)cc(-c4cccc(C(C)N)n4)cc32)n1 (stereo not shown) [Example 251] | 100 to 1000
10 | CCC[C@@H](N)c1ccnc(-c2cc(OCCOC)c3cnn(-c4cccc(CO)n4)c3c2)n1 [Example 596, (R)-(6-(6-(4-(1-aminobutyl)pyrimidin-2-yl)-4-(2-methoxyethoxy)-1H-indazol-1-yl)pyridin-2-yl)methanol] | < 100
11 | CC(N)c1cccc(-c2ccc3cnn(-c4cccc(C(N)=O)n4)c3c2)n1 (stereo not shown) [Example 126, 6-(6-(6-(1-aminoethyl)pyridin-2-yl)-1H-indazol-1-yl)picolinamide] | < 100
12 | COCCOc1cc(-c2cccc([C@H](C)N)n2)cc2c1cnn2-c1cccc(CO)n1 [Example 586, (S)-(6-(6-(6-(1-aminoethyl)pyridin-2-yl)-4-(2-methoxyethoxy)-1H-indazol-1-yl)pyridin-2-yl)methanol] | < 100
13 | Cc1csc(-n2ncc3ccc(-c4cccc(C(C)N)n4)cc32)n1 (stereo not shown) [Example 134, 1-(6-(1-(4-methylthiazol-2-yl)-1H-indazol-6-yl)pyridin-2-yl)ethanamine] | 100 to 1000
14 | Cc1cccc(-n2ncc3ccc(-c4cccc(N)c4)cc32)n1 [Example 8, 3-(1-(6-methylpyridin-2-yl)-1H-indazol-6-yl)aniline] | 100 to 1000
15 | N#Cc1cccc(-c2ncc3ccc(-c4cncc(N)c4)cn23)c1 [Example 75, 3-(6-(5-aminopyridin-3-yl)imidazo[1,5-a]pyridin-3-yl)benzonitrile] | 1000 to 10000
16 | Cc1cccc(-n2ncc3ccc(-c4cccc5c4CCNC5)cc32)n1 [Example 15, 5-(1-(6-methylpyridin-2-yl)-1H-indazol-6-yl)-1,2,3,4-tetrahydroisoquinoline] | 1000 to 10000
17 | Nc1cc(-c2ccc3cnn(-c4cccc(C(F)(F)F)n4)c3c2)cc(C(=O)O)n1 [Example 213, 6-amino-4-(1-(6-(trifluoromethyl)pyridin-2-yl)-1H-indazol-6-yl)picolinic acid] | 1000 to 10000
18 | Cc1ccnc(-n2ncc3ccc(-c4cccc(C(C)N)n4)cc32)n1 (stereo not shown) [Example 296, 1-(6-(1-(4-methylpyrimidin-2-yl)-1H-indazol-6-yl)pyridin-2-yl)ethanamine] | 1000 to 10000
19 | Nc1cccc(-c2ccc3cnn(-c4ccccn4)c3c2)c1 [Example 21, 3-(1-(pyridin-2-yl)-1H-indazol-6-yl)aniline] | 100 to 1000
20 | N#Cc1cccc(-c2ccc3cnn(-c4cccc(C(F)(F)F)n4)c3c2)n1 [Example 211, 6-(1-(6-(trifluoromethyl)pyridin-2-yl)-1H-indazol-6-yl)picolinonitrile] | 1000 to 10000

Row | Compound | IC50 [nM]
21 | CCC[C@@H](N)c1ccnc(-c2cc(OC)c3cnn(-c4cccc(CO)n4)c3c2)n1 [Example 576, (R)-(6-(6-(4-(1-aminobutyl)pyrimidin-2-yl)-4-methoxy-1H-indazol-1-yl)pyridin-2-yl)methanol] | < 100
22 | CCC[C@@H](N)c1cncc(-c2ccc3cnn(-c4cccc(CO)n4)c3c2)n1 [Example 408, (R)-(6-(6-(6-(1-aminobutyl)pyrazin-2-yl)-1H-indazol-1-yl)pyridin-2-yl)methanol] | < 100
23 | CCC[C@H](N)c1cccc(-c2cc(C#CC(C)(C)O)c3cnn(-c4cccc(CO)n4)c3c2)n1 [Example 462, (S)-4-(6-(6-(1-aminobutyl)pyridin-2-yl)-1-(6-(hydroxymethyl)pyridin-2-yl)-1H-indazol-4-yl)-2-methylbut-3-yn-2-ol] | 1000 to 10000
24 | CC(=O)c1cccc(-c2ccc3cnn(-c4ccccn4)c3c2)n1 [Example 229, 1-(6-(1-(pyridin-2-yl)-1H-indazol-6-yl)pyridin-2-yl)ethanone] | 1000 to 10000
25 | CC(N)c1cccc(-c2ccc3cnn(-c4ccn(C)n4)c3c2)n1 (stereo not shown) [Example 137, 1-(6-(1-(1-methyl-1H-pyrazol-3-yl)-1H-indazol-6-yl)pyridin-2-yl)ethanamine] | 100 to 1000
26 | Cc1cccc(-n2ncc3c(C(=O)O)cc(-c4cccc(C(C)N)n4)cc32)n1 (stereo not shown) [Example 113, 6-(6-(1-aminoethyl)pyridin-2-yl)-1-(6-methylpyridin-2-yl)-1H-indazole-4-carboxylic acid] | 100 to 1000
27 | CCC[C@H](N)c1cccc(-c2cc(C3CCN(C)CC3)c3cnn(-c4cccc(CO)n4)c3c2)n1 [Example 424, (S)-(6-(6-(6-(1-aminobutyl)pyridin-2-yl)-4-(1-methylpiperidin-4-yl)-1H-indazol-1-yl)pyridin-2-yl)methanol] | < 100
28 | CCC[C@H](N)c1cccc(-c2cc(OCCO)c3cnn(-c4cccc(CO)n4)c3c2)n1 [Example 426, (S)-2-((6-(6-(1-aminobutyl)pyridin-2-yl)-1-(6-(hydroxymethyl)pyridin-2-yl)-1H-indazol-4-yl)oxy)ethanol] | < 100
29 | Cc1cccc(-n2ncc3ccc(-c4cccc([C@H](C)N)n4)cc32)n1 [Example 142, (S)-1-(6-(1-(6-methylpyridin-2-yl)-1H-indazol-6-yl)pyridin-2-yl)ethanamine] | < 100
30 | CC(N)c1cccc(-c2ccc3cnn(-c4cccc(C(F)(F)F)n4)c3c2)c1 (stereo not shown) [Example 89, 1-(3-(1-(6-(trifluoromethyl)pyridin-2-yl)-1H-indazol-6-yl)phenyl)ethanamine] | < 100
31 | COCCOc1cc(-c2cccc([C@@H](N)C(F)CCO)n2)cc2c1cnn2-c1cccc(CO)n1 (stereo partly drawn) [Example 430, (4R)-4-amino-3-fluoro-4-(6-(1-(6-(hydroxymethyl)pyridin-2-yl)-4-(2-methoxyethoxy)-1H-indazol-6-yl)pyridin-2-yl)butan-1-ol] | < 100
32 | Cc1cccc(-n2ncc3ccc(-c4cccc5c4CN(C)C5)cc32)n1 [Example 17, 6-(2-methylisoindolin-4-yl)-1-(6-methylpyridin-2-yl)-1H-indazole] | 1000 to 10000
33 | CCC[C@H](N)c1cccc(-c2cc([C@@H]3CC[C@@H](C)O3)c3cnn(-c4cccc(CO)n4)c3c2)n1 [Example 479, (6-(6-(6-((S)-1-aminobutyl)pyridin-2-yl)-4-((2S,5R)-5-methyltetrahydrofuran-2-yl)-1H-indazol-1-yl)pyridin-2-yl)methanol] | < 100
34 | CCC[C@H](N)c1cccc(-c2ccc3cnn(-c4cccc(CO)n4)c3c2)n1 [Example 145, (S)-(6-(6-(6-(1-aminobutyl)pyridin-2-yl)-1H-indazol-1-yl)pyridin-2-yl)methanol] | < 100
35 | COC(=O)c1cc(-c2cncc(N)c2)cc2c1cnn2-c1cccc(C(F)(F)F)n1 [Example 50, methyl 6-(5-aminopyridin-3-yl)-1-(6-(trifluoromethyl)pyridin-2-yl)-1H-indazole-4-carboxylate] | < 100
36 | N#Cc1cccc(-n2ncc3ccc(-c4cccc(N)c4)cc32)n1 [Example 22, 6-(6-(3-aminophenyl)-1H-indazol-1-yl)picolinonitrile] | < 100
37 | Cc1cccc(-n2ncc3ccc(-c4cccc(C5(C#N)CCC5)n4)cc32)n1 [Example 304, 1-(6-(1-(6-methylpyridin-2-yl)-1H-indazol-6-yl)pyridin-2-yl)cyclobutanecarbonitrile] | < 100
38 | CCC[C@H](N)c1cccc(-c2cc(OCCS(C)(=O)=O)c3cnn(-c4cccc(CO)n4)c3c2)n1 [Example 470, (S)-(6-(6-(6-(1-aminobutyl)pyridin-2-yl)-4-(2-(methylsulfonyl)ethoxy)-1H-indazol-1-yl)pyridin-2-yl)methanol] | 100 to 1000
39 | Cc1cccc(-n2ncc3cc(C)c(-c4cncc(N)c4)cc32)n1 [Example 44, 5-(5-methyl-1-(6-methylpyridin-2-yl)-1H-indazol-6-yl)pyridin-3-amine] | 1000 to 10000
40 | CCC[C@H](N)c1cccc(-c2cc(C(CO)CCl)c3cnn(-c4cccc(CO)n4)c3c2)n1 (stereo partly drawn) [Example 585, 2-(6-(6-((S)-1-aminobutyl)pyridin-2-yl)-1-(6-(hydroxymethyl)pyridin-2-yl)-1H-indazol-4-yl)-3-chloropropan-1-ol] | 100 to 1000
